Values of other authors in US5849263A, “Pharmaceutical compositions containing alkylaryl polyether alcohol polymer” (priority 1996, dated 1998).

Details: in vivo

CCCCCCCCCCCCCCCC(=O)OCC(COP(=O)([O-])OCC[N+](C)(C)C)OC(=O)CCCCCCCCCCCCCCC (stereo not shown) [DPPC, diphalmitoylphosphatidyl choine]
undesired features / side effects of formulation: mucus plugging of the airways and obstruction of ventilator circuits
